System: glycogen synthase
Assay: Glycogen Synthase (GS) Assay
Assay type: biochemical
Settings: coupled pyruvate kinase/lactate dehydrogenase assay, absorbance at 340 nm; for EC50: compound concentration needed to give 50% maximum activation; for GS SC200: compound concentration needed to stimulate 200% of the enzyme activity
Procedure: The following tests were carried out in order to determine the activity of the compounds of formula (I).
Twelve μL per well of substrate solution containing glycogen (4.32 mg/ml), 2.67 mM UDP-glucose, 21.6 mM phospho(enol)pyruvate and 2.7 mM NADH in 30 mM glycylglycine, pH 7.3 buffer was added into a polystyrene 384-well assay plate (BD Biosciences).
Compound solutions (8 μL/well) at various concentrations (0-300 μM) were added to the assay plate (columns 5-24). Compound solution contains 30 mM glycylglycine, pH 7.3, 40 mM KCl, 20 mM MgCl2, 9.2% DMSO, with (columns 15-24) or without (columns 5-14) 20 mM glucose 6-phosphate.
Enzyme solution (12 μL/well) containing glycogen synthase (16.88 μg/ml), pyruvate kinase (0.27 mg/ml), lactate dehydrogenase (0.27 mg/ml) in 50 mM Tris-HCl, pH 8.0, 27 mM DTT and bovine serum albumin (BSA, 0.2 mg/ml) was added to the assay plate (columns 3-24). As a blank control, enzyme solution without glycogen synthase was added into the top half wells of columns 1-2. To the bottom half wells of columns 1-2 were added a known activator, glucose 6-phosphate (at final concentration 5 mM) in addition to the enzyme solution. The reaction mixture was incubated at room temperature. The assay plate was then read for absorbance at 340 nm on an Envision reader every 3 minutes up to a total of 15 minutes.
The enzyme activity (with or without compound) was calculated by the reaction rate and represented by the optical density change (δOD) per minute. Percent stimulation of glycogen synthase activity by a compound at various concentrations was calculated by the following formula: […]
Where Rs is the reaction rate of the enzyme in the presence of compound and Rt is the reaction rate of the enzyme in the absence of compound.
SC200 is defined as the compound concentration that is needed to stimulate 200% of the enzyme activity. EC50 is defined as the compound concentration that is needed to give 50% maximum activation.
Compounds from Examples 1 through Example 64 were assayed according to assay procedures described above and the result is listed in Table 1 below: […]

SMILES	EC50	GS SC200
O=C(O)C1CCS(=O)(=O)N1Cc1cccc(COc2ccc(-c3cc(F)c(F)cc3F)cc2)c1 (racemic) [Example 38, 1,1-Dioxo-2-[3-(2′,4′,5′-trifluoro-biphenyl-4-yloxymethyl)-benzyl]-1lambda*6*-isothiazolidine-3-carboxylic acid]	0.13 µM	0.05 µM
Cc1cc(F)c(F)cc1-c1ccc(OCc2cccc(CN3C(C(=O)O)CCS3(=O)=O)c2)cc1 (racemic) [Example 39, 2-[3-(4′,5′-Difluoro-2′-methyl-biphenyl-4-yloxymethyl)-benzyl]-1,1-dioxo-1lambda*6*-isothiazolidine-3-carboxylic acid]	0.18 µM	0.03 µM
O=C(O)C1CCS(=O)(=O)N1Cc1cccc(COc2ccc(-c3cc(F)c(F)cc3Cl)cc2)c1 (racemic) [Example 40, 2-[3-(2′-Chloro-4′,5′-difluoro-biphenyl-4-yloxymethyl)-benzyl]-1,1-dioxo-1lambda*6*-isothiazolidine-3-carboxylic acid]	0.2 µM	0.04 µM
COc1cc(F)c(F)cc1-c1ccc(OCc2cccc(CN3C(C(=O)O)CCS3(=O)=O)c2)cc1 (racemic) [Example 43, 2-[3-(4′,5′-Difluoro-2′-methoxy-biphenyl-4-yloxymethyl)-benzyl]-1,1-dioxo-1lambda*6*-isothiazolidine-3-carboxylic acid]	0.19 µM	0.03 µM
COc1cc(F)c(F)cc1-c1ccc(OCc2cccc(CN(CC(=O)O)C(=O)C(C)(C)C)c2)cc1 [Example 1, [[3-(4′,5′-Difluoro-2′-methoxy-biphenyl-4-yloxymethyl)-benzyl]-(2,2-dimethyl-propionyl)-amino]-acetic acid]	1.34 µM	0.21 µM
COc1cc(F)c(F)cc1-c1ccc(OCc2cccc(CN(CC(=O)O)C(=O)CC(C)C)c2)cc1 [Example 2, [[3-(4′,5′-Difluoro-2′-methoxy-biphenyl-4-yloxymethyl)-benzyl]-(3-methyl-butyryl)-amino]-acetic acid]	1.08 µM	0.13 µM
COc1cc(F)c(F)cc1-c1ccc(OCc2cccc(CN(CC(=O)O)C(=O)N3CCOCC3)c2)cc1 [Example 3, [[3-(4′,5′-Difluoro-2′-methoxy-biphenyl-4-yloxymethyl)-benzyl]-(morpholine-4-carbonyl)-amino]-acetic acid]	0.69 µM	0.11 µM
COc1cc(F)c(F)cc1-c1ccc(OCc2cccc(CN(CC(=O)O)C(=O)C3CCC3)c2)cc1 [Example 4, {Cyclobutanecarbonyl-[3-(4′,5′-difluoro-2′-methoxy-biphenyl-4-yloxymethyl)-benzyl]-amino}-acetic acid]	0.72 µM	0.18 µM
COc1cc(F)c(F)cc1-c1ccc(OCc2cccc(CN(CC(=O)O)C(=O)c3ccccc3)c2)cc1 [Example 5, {Benzoyl-[3-(4′,5′-difluoro-2′-methoxy-biphenyl-4-yloxymethyl)-benzyl]-amino}-acetic acid]	0.45 µM	0.09 µM
COc1cc(F)c(F)cc1-c1ccc(OCc2cccc(CN(CC(=O)O)C(=O)OC(C)C)c2)cc1 [Example 6, {[3-(4′,5′-Difluoro-2′-methoxy-biphenyl-4-yloxymethyl)-benzyl]-isopropoxycarbonyl-amino}-acetic acid]	0.47 µM	0.03 µM
CCS(=O)(=O)N(CC(=O)O)Cc1cccc(COc2ccc(-c3cc(F)c(F)cc3OC)cc2)c1 [Example 7, {[3-(4′,5′-Difluoro-2′-methoxy-biphenyl-4-yloxymethyl)-benzyl]-ethanesulfonyl-amino}-acetic acid]	0.31 µM	0.04 µM
COc1cc(F)c(F)cc1-c1ccc(OCc2cccc(CN(CC(=O)O)S(=O)(=O)c3ccccc3)c2)cc1 [Example 8, {Benzenesulfonyl-[3-(4′,5′-difluoro-2′-methoxy-biphenyl-4-yloxymethyl)-benzyl]-amino}-acetic acid]	0.91 µM	0.17 µM
COc1cc(F)c(F)cc1-c1ccc(OCc2cccc(CN(CC(=O)O)S(=O)(=O)C3CC3)c2)cc1 [Example 9, {Cyclopropanesulfonyl-[3-(4′,5′-difluoro-2′-methoxy-biphenyl-4-yloxymethyl)-benzyl]-amino}-acetic acid]	0.52 µM	0.06 µM
COc1cc(F)c(F)cc1-c1ccc(OCc2cccc(CN(CC(=O)O)S(C)(=O)=O)c2)cc1 [Example 10, {[3-(4′,5′-Difluoro-2′-methoxy-biphenyl-4-yloxymethyl)-benzyl]-methanesulfonyl-amino}-acetic acid]	0.29 µM	0.03 µM
CC(C)(C)C(=O)N(CC(=O)O)Cc1cccc(COc2ccc(-c3ccc(F)cc3F)cc2)c1 [Example 11, [[3-(2′,4′-Difluoro-biphenyl-4-yloxymethyl)-benzyl]-(2,2-dimethyl-propionyl)-amino]-acetic acid]	3.67 µM	0.97 µM
O=C(O)CN(Cc1cccc(COc2ccc(-c3ccc(F)cc3F)cc2)c1)C(=O)C1CC1 [Example 12, {Cyclopropanecarbonyl-[3-(2′,4′-difluoro-biphenyl-4-yloxymethyl)-benzyl]-amino}-acetic acid]	4.31 µM	0.75 µM
O=C(O)CN(Cc1cccc(COc2ccc(-c3ccc(F)cc3F)cc2)c1)C(=O)N1CCOCC1 [Example 13, [[3-(2′,4′-Difluoro-biphenyl-4-yloxymethyl)-benzyl]-(morpholine-4-carbonyl)-amino]-acetic acid]	0.93 µM	0.10 µM
Cn1ccnc1C(=O)N(CC(=O)O)Cc1cccc(COc2ccc(-c3ccc(F)cc3F)cc2)c1 [Example 14, [[3-(2′,4′-Difluoro-biphenyl-4-yloxymethyl)-benzyl]-(1-methyl-imidazole-2-carbonyl)-amino]-acetic acid]	1.31 µM	0.15 µM
O=C(O)CN(Cc1cccc(COc2ccc(-c3ccc(F)cc3F)cc2)c1)C(=O)c1cccnc1 [Example 15, [[3-(2′,4′-Difluoro-biphenyl-4-yloxymethyl)-benzyl]-(pyridine-3-carbonyl)-amino]-acetic acid]	1.43 µM	0.15 µM
O=C(O)CN(Cc1cccc(COc2ccc(-c3ccc(F)cc3F)cc2)c1)C(=O)c1ccccn1 [Example 16, [[3-(2′,4′-Difluoro-biphenyl-4-yloxymethyl)-benzyl]-(pyridine-2-carbonyl)-amino]-acetic acid]	1.54 µM	0.43 µM
COCC(C)C(=O)N(CC(=O)O)Cc1cccc(COc2ccc(-c3ccc(F)cc3F)cc2)c1 (stereo not shown) [Example 17, [[3-(2′,4′-Difluoro-biphenyl-4-yloxymethyl)-benzyl]-(3-methoxy-2-methyl-propionyl)-amino]-acetic acid]	1.53 µM	0.36 µM
CCS(=O)(=O)N(CC(=O)O)Cc1cccc(COc2ccc(-c3cc(F)c(F)cc3F)cc2)c1 [Example 18, {Ethanesulfonyl-[3-(2′,4′,5′-trifluoro-biphenyl-4-yloxymethyl)-benzyl]-amino}-acetic acid]	0.16 µM	0.07 µM
COC(=O)N(CC(=O)O)Cc1cccc(COc2ccc(-c3cc(F)c(F)cc3OC)cc2)c1 [Example 19, {[3-(4′,5′-Difluoro-2′-methoxy-biphenyl-4-yloxymethyl)-benzyl]-methoxycarbonyl-amino}-acetic acid]	1.82 µM	0.42 µM

Reference: patent publication US20110136792A1, “NOVEL CARBOXYLIC ACID ANALOGS AS GLYCOGEN SYNTHASE ACTIVATORS” (priority 2009, published 2011)
